Holding throughout (assay type): ADME
In assay [1] the target is T1, Cytochrome P450 1A2 (Homo sapiens, UniProt P05177).
T1 sequence (P05177 whole entry): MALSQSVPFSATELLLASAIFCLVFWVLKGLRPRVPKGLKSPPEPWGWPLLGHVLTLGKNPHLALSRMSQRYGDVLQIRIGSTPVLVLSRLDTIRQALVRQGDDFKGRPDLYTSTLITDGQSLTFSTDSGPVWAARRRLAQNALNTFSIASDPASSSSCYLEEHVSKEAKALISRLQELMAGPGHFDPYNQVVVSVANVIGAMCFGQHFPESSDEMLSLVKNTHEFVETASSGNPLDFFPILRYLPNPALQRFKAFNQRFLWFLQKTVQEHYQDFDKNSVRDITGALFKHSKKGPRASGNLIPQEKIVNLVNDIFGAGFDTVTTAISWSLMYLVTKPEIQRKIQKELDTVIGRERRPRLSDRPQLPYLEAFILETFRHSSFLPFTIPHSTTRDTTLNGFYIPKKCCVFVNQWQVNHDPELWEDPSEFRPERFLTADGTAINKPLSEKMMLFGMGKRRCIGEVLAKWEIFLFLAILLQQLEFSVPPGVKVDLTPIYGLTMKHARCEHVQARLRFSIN
Description: (§1) The compounds are incubated at 0, 0.15, 0.5, 1.5, 5, 15 and 50 uM concentration at 37 C, CYP1A2 is pooled in a ratio such that biotransformation of each probe substrate is specific for the CYP450. Substrates (at their Km) are also pooled within the same solution to create an enzyme-substrate stock and test compound is added. The final solvent concentration is 1% DMSO. After equilibration to 37 C, addition of NADPH initiates substrate biotransformation. The incubation is stopped at 10 min by methanol containing internal standard. The quenched samples are centrifuged to precipitate the protein and the supernatants are analyzed by LC-MS/MS to measure metabolite formation. IC50 of test compounds against CYP1A2 is calculated. The assay has been performed by Concept Life Sciences Ltd.

Assay [2] has as its target Cytochrome P450 2C9 (Homo sapiens, UniProt P11712). The description is as §1, with “CYP2C9” for “CYP1A2”.
Assay [3] concerns the target Cytochrome P450 2C19 (Homo sapiens, UniProt P33261). Described as §1, with “CYP2C19” for “CYP1A2”.
Assay [4] deals with Cytochrome P450 3A4 (Homo sapiens, UniProt P08684). The description is as §1, with “CYP3A4” for “CYP1A2”.
Assay [5] deals with Cytochrome P450 2D6 (Homo sapiens, UniProt P10635). The description is as §1, with “CYP2D6” for “CYP1A2”.

For orientation: IC50 means the midpoint of a concentration-inhibition curve.

Sequence of Cytochrome P450 2C19 (P33261 whole entry): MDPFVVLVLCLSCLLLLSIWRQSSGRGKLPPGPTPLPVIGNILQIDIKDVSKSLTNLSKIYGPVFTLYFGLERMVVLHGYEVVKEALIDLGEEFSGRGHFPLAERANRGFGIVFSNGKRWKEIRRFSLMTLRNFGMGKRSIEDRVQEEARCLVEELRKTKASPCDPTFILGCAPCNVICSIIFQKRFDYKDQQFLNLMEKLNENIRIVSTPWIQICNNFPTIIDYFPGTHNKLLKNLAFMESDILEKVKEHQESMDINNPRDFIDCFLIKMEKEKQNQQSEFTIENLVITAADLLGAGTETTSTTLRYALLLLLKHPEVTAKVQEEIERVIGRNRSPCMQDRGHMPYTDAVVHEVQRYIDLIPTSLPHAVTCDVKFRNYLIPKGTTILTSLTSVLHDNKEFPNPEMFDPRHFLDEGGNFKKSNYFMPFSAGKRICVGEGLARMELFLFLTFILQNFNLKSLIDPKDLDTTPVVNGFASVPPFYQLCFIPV
Sequence of Cytochrome P450 2C9 (P11712 whole entry): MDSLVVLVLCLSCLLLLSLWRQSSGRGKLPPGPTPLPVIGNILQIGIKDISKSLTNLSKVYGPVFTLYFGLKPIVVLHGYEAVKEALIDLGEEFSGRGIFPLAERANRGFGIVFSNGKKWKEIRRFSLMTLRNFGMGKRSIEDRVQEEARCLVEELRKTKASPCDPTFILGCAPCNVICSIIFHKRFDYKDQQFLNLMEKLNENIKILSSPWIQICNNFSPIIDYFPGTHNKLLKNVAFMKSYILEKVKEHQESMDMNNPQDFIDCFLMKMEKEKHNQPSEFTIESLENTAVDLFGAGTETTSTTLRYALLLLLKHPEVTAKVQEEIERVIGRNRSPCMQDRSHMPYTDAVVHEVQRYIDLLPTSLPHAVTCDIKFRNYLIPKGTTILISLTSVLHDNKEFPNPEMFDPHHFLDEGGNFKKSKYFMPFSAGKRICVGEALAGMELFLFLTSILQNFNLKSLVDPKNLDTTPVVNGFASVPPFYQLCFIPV
Sequence of Cytochrome P450 2D6 (P10635 whole entry): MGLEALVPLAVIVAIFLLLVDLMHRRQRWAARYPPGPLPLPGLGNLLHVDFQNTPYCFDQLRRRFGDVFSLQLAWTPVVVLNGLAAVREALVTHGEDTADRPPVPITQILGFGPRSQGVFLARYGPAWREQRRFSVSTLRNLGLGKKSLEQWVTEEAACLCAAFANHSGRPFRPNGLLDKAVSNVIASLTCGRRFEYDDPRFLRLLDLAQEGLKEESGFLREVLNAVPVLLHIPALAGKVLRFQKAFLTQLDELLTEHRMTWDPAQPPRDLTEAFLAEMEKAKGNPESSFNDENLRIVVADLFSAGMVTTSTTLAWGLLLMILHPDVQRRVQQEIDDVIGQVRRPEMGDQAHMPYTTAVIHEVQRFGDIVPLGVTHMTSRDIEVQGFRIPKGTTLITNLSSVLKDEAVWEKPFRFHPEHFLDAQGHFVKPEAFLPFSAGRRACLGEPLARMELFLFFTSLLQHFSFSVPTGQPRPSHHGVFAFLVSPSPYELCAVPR
Sequence of Cytochrome P450 3A4 (P08684 whole entry): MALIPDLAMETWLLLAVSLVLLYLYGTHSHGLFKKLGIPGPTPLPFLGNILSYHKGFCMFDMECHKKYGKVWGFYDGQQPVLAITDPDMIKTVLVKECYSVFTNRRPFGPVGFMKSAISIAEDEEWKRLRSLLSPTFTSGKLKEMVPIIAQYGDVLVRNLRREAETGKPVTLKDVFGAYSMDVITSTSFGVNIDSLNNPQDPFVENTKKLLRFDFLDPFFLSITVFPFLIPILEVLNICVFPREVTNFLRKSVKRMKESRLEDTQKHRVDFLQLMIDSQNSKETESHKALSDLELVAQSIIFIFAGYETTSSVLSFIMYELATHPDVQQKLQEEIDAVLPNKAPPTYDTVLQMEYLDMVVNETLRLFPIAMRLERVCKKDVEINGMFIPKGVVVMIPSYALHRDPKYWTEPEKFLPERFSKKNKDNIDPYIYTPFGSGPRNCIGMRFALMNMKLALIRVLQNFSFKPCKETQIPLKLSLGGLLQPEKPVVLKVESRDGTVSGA

On to `COc1ccc([C@H](Cc2nnn[nH]2)NC(=O)c2ncnc3[nH]ccc23)cc1`, for which the IC50 is greater than 50 µM in assay [1]; 31.2 µM in assay [2]; greater than 50 µM in assay [3]; 25.4 µM in assay [4]; greater than 50 µM in assay [5].

Consider `CNC(=O)Cn1cc(-c2cc3c(N[C@@H](c4ccc5c(c4)S(=O)(=O)CCC5)C(C)C)ncnc3[nH]2)cn1`, for which the IC50 in assay [1] was 44.1 µM; in assay [2], 29 µM; in assay [3], 34.7 µM; in assay [4], 3.1 µM; in assay [5], 48.2 µM.

`CC(C)[C@H](Nc1ncnc2[nH]ccc12)c1ccc2c(c1)S(=O)(=O)CCC2`: the 50% inhibitory concentration (IC50) in assay [1] was greater than 50 µM; in assay [2] it was 18.2 µM; in assay [3] it was 15 µM; in assay [4] it was 3.2 µM; in assay [5], greater than 50 µM.

For `C[C@H](C(=O)O)[C@@H](NC(=O)c1ncnc2[nH]ccc12)c1ccc(Br)cc1`, the IC50 is greater than 50 µM in assay [1]; 5.14 µM in assay [2]; greater than 50 µM in assay [3]; greater than 50 µM in assay [4]; greater than 50 µM in assay [5].

For the molecule `Cn1ncc(-c2cc3c(N[C@@H](c4ccc5c(n4)OCCO5)C(C)(C)C)ncnc3[nH]2)c1C#N`, the IC50 in assay [1] is greater than 50 µM; in assay [2], 42.6 µM; in assay [3], greater than 50 µM; in assay [4], 8.79 µM; in assay [5], 20.5 µM.

On to `CC(C)[C@H](Nc1ncnc2[nH]c(-c3cnn(C)c3C#N)cc12)c1ccc2c(n1)OCCO2`, for which the IC50 in assay [1] is 35.2 µM; in assay [2], 5.93 µM; in assay [3] it was 16.9 µM; in assay [4], 3.69 µM; in assay [5] it was 27.7 µM.

With `CC(C)[C@@H](Nc1ncnc2[nH]c(C(=O)N[C@@H]3CCN(C)C3)cc12)c1ccc2c(c1)S(=O)(=O)CCC2`, the 50% inhibitory concentration (IC50) in assay [1], in assay [2], in assay [3], in assay [4] and in assay [5] was greater than 50 µM throughout.

Turning to `CNCc1cc(-c2cc3c(N[C@@H](c4ccc5c(c4)S(=O)(=O)CCC5)C(C)C)ncnc3[nH]2)co1`, the half-inhibitory concentration (IC50) in assay [1] was 49.3 µM; in assay [2] it was 5.25 µM; in assay [3], 22.6 µM; in assay [4], 1.81 µM; in assay [5], 9.03 µM.

For the molecule `CC(C)[C@@H](Nc1ncnc2[nH]c(-c3cnn(C)c3C#N)cc12)c1ccc2c(n1)OCCO2`, the IC50 in assay [1] was 8.86 µM; in assay [2], 4.34 µM; in assay [3], 9.51 µM; in assay [4] it was 2.07 µM; in assay [5] it was 22.7 µM.
